Assay results reported in patent US20030171377A1, “Antidiabetic agents” (priority 2001, published 2003).

Key:
[1] = system: endogenous nuclear receptors in CV-1 cells; test: CV-1 Native Receptors Transcription Assay (MKNRCV1), Test C; type: cell-based, African green monkey; details: for MKNRCV1 % BRL @ 5 μM: 5 μM (stated in the cell); for MKNRCV1 % BRL @ 5 μM / MKNRCV1 % BRL @ 25 μM: percent activity of BRL 49653; for EC50: Chlorocebus sabaeus, CV-1 cells, 48 hours, unit inferred
[2] = system: 3T3-L1 preadipocytes; test: 3T3-L1 Adipocyte Differentiation Assay (ADPDIFF), Test A; type: cell-based; details: BODIPY lipid fluorescence, reported as % of BRL 49653 at 5 μM
Procedure: Cells are replenished with FBS containing media on day 5 of post-drug treatment and incubated for additional 4-6 days. Cells are stained with BODIPY a fluorescent lipophilic stain to quantitate the lipid content of the cells. The assay is optimized for a 96-well plate format. Approximately after 10 days of post-drug treatment, cells are fixed in 3% formalin solution for 15 min followed by staining with BODIPY (80 μg/ml) for 20 min at room temperature. The plate is then put through the CYTOFLUOR instrument to measure the fluorescence of BODIPY (excitation=485/20; emission=530/25).

[3] = system: CV-1 cells (FATP promoter luciferase reporter, 300 nM BRL); test: ANTCV1 Antagonist Transcription Assay, Test B; type: cell-based, African green monkey; details: Chlorocebus sabaeus, 25 μM test compound with 300 nM BRL, 48 hrs, % BRL inhibition, read-out: ANTCV1 INHIB @ 25 μM

Row | SMILES | MKNRCV1 % BRL @ 5 μM [1] | ADPDIFF % BRL @ 5 μM [2] [% BRL] | MKNRCV1 % BRL @ 25 μM [1] [% BRL] | EC50 [1] [µM] | inhibition at 25 µM [3] [%]
1 | Cc1oc(-c2ccccc2)nc1CCOc1ccc(C[C@@H](C(=O)O)n2cccc2)cc1 | 83 @ 5 μM % BRL |  |  |  | 
2 | Cc1oc(-c2ccccc2)nc1CCOc1ccc(C[C@@H](C(=O)NS(C)(=O)=O)n2cccc2)cc1 |  | 110 | 97 | 3.2 | -30
3 | Cc1oc(-c2ccccc2)nc1CCOc1ccc(C[C@@H](C(=O)NS(=O)(=O)c2ccccc2)n2cccc2)cc1 |  | 90 | 101 | 3.3 | -117
4 | CCCc1nnc([C@H](Cc2ccc(OCCc3nc(-c4ccccc4)oc3C)cc2)n2cccc2)o1 |  | 94 | 0 |  | 84
5 | Cc1oc(-c2ccccc2)nc1CCOc1ccc(C[C@@H](c2nnco2)n2cccc2)cc1 | 37 @ 5 μM % BRL | 45 |  |  | 49
6 | Cc1oc(-c2ccccc2)nc1CCOc1ccc(C[C@H](C(=O)O)n2cccc2)cc1 | 87 @ 5 μM % BRL | 96 |  |  | 
7 | Cc1oc(-c2ccccc2)nc1CC#Cc1ccc(CC(C(=O)O)c2cccnc2)cc1 (stereo not shown) | 49 @ 5 μM % BRL |  |  | 34 | -15
8 | Cc1oc(-c2ccccc2)nc1CC#Cc1ccc(CC(C(=O)O)c2ccc(-c3ccccc3)cc2)cc1 (stereo not shown) | 86 @ 5 μM % BRL |  |  | 2.7 | -21
9 | Cc1oc(-c2ccccc2)nc1CCCc1ccc(CC(C(=O)O)c2ccccc2)cc1 (stereo not shown) |  |  | 0.1122 |  | 
10 | Cc1oc(-c2ccccc2)nc1CC#Cc1ccc(CC(C(=O)O)c2cccc(-c3ccccc3)c2)cc1 (stereo not shown) | 48 @ 5 μM % BRL |  |  |  | -3
11 | O=C(O)[C@H](Cc1ccc(OCc2ccccc2F)cc1)n1cccc1 |  | 21 | 92 | 1.4 | -46
12 | COC(=O)[C@H](Cc1ccc(C#CCN(C)c2ccccn2)cc1)n1cccc1 |  | 29 | 38 | 5.6 | 71
13 | O=C(O)[C@H](Cc1ccc(OCCCc2ccncc2)cc1)n1cccc1 |  | 3 | 44 |  | 3
14 | CN(CC#Cc1ccc(CC(C(=O)O)n2cccc2)cc1)c1ccccn1 (stereo not shown) |  | 6 | 71 |  | -32
15 | O=C(O)[C@H](Cc1ccc(OCCc2ccccc2C(F)(F)F)cc1)n1cccc1 |  | 112 | 80 | 0.4 | -27
16 | COC(=O)[C@H](Cc1ccc(C#CCc2nc(-c3ccccc3)oc2C)cc1)n1cccc1 |  | 90 | 123 | 0.1 | -114
17 | CN(C/C=C/c1ccc(C[C@@H](C(=O)O)n2cccc2)cc1)c1ccccn1 |  | 94 | 92 | 0.9 | -36
18 | CN(CCCc1ccc(C[C@@H](C(=O)O)n2cccc2)cc1)c1ccccn1 |  | 113 | 64 |  | 
19 | Cc1oc(-c2ccccc2)nc1C/C=C/c1ccc(C[C@@H](C(=O)O)n2cccc2)cc1 |  | 76 | 94 |  | 
20 | O=C(O)[C@H](Cc1ccc(OCCN2CCN(c3ccccc3)CC2)cc1)n1cccc1 |  | 82 | 32 |  | -40
21 | O=C(O)[C@H](Cc1ccc(OCCn2c(-c3ccccc3)nc3ccccc32)cc1)n1cccc1 |  | 19 | 39 |  | -69
22 | COC(=O)[C@H](Cc1ccc(CCCN(C)c2ccccc2)cc1)n1cccc1 |  | 73 | 71 |  | -2

Row | SMILES | MKNRCV1 % BRL @ 5 μM [1] | ADPDIFF % BRL @ 5 μM [2] [% BRL] | MKNRCV1 % BRL @ 25 μM [1] [% BRL] | EC50 [1] [µM] | inhibition at 25 µM [3] [%]
23 | CN(CCOc1ccc(C[C@@H](C(=O)O)n2cccc2)cc1)c1ccnc2cc(Cl)ccc12 |  | 1 | 83 |  | -87
24 | COC(=O)[C@H](Cc1ccc(/C=C/CN(C)c2ccccc2)cc1)n1cccc1 |  | 110 | 96 | 0.7 | 2
25 | CN(C/C=C/c1ccc(C[C@@H](C(=O)O)n2cccc2)cc1)c1ccccc1 |  |  | 79 | 1.7 | -29
26 | Cc1oc(-c2ccccc2)nc1CCNc1ccc(C[C@@H](C(=O)O)n2cccc2)cc1 |  |  | 157 |  | 
27 | COC(=O)[C@H](Cc1ccc(/C=C/CN2CCC(c3ccccc3)CC2)cc1)n1cccc1 |  | 32 | 47 |  | 25
28 | CC(=O)c1cccn1[C@@H](Cc1ccc(OCc2ccccc2F)cc1)C(=O)O |  | 3 | 25 |  | -40
29 | Cc1ccc(C)n1[C@@H](Cc1ccc(OCc2ccccc2F)cc1)C(=O)O |  | 2 | 34 |  | 
30 | Cc1ccc(-c2ccccc2)n1[C@@H](Cc1ccc(OCc2ccccc2F)cc1)C(=O)O |  | 2 | 30 |  | -44
31 | O=C(O)[C@H](Cc1ccc(OCc2ccccc2F)cc1)n1cccc1C(=O)C(F)(F)F |  | 14 | 18 |  | 28
32 | CN(CCOc1ccc(CC(C(=O)O)n2ccc(C(=O)C3CCCCC3)c2)cc1)c1nc2ccccc2o1 (stereo not shown) |  | 112 | 65 | 11.1 | 4
33 | O=C(c1ccn(C(Cc2ccc(OCc3ccccc3F)cc2)C(=O)O)c1)C1CCCCC1 (stereo not shown) |  | 12 | 28 |  | 1
34 | CN(CCOc1ccc(CC(C(=O)O)n2ccc(-c3ccccc3)c2)cc1)c1nc2ccccc2o1 (stereo not shown) |  | 113 | 59 |  | -41
35 | Cc1cc(OCCc2nc(-c3ccccc3)oc2C)ccc1CC(C(=O)O)c1ccccc1 (stereo not shown) |  |  |  | 1 | 
36 | Cc1nc(-c2ccc(C(F)(F)F)cc2)sc1CSc1ccc(OCC(=O)O)cc1 |  |  | 70 |  | -58
37 | Cc1oc(-c2ccccc2)nc1CCOc1ccc(CC[C@@H](C(=O)O)n2cccc2)cc1 | 82 @ 5 μM % BRL |  |  | 1.3 | 62
38 | Cc1oc(-c2ccccc2)nc1CCOc1ccc([C@@H](C(=O)O)n2cccc2)cc1 | 47 % BRL |  | 57 | 3.6 | 39
39 | Cc1oc(-c2ccccc2)nc1CCOc1ccc([C@@H](C(=O)O)n2cccc2C(=O)c2ccccc2)cc1 | 39 % BRL |  | 58 |  | -5
40 | Cc1cc(-c2cc(O)c(Sc3cccc(C(=O)O)c3)oc2=O)ccc1OCc1ccccc1 | 26 @ 5 μM % BRL |  |  |  | -29
41 | Cc1oc(-c2ccccc2)nc1CCOc1ccc(CC(C(=O)O)c2nc(-c3ccccc3)oc2C)cc1 (stereo not shown) [drawing 261] | 110 @ 5 μM % BRL |  |  |  | 18
42 | Cc1oc(-c2ccccc2)nc1CCOc1ccc(CC(C(=O)O)c2ccccc2)cn1 (stereo not shown) [drawing 262] |  |  |  | 1.2 | 
43 | Cc1oc(-c2ccccc2)nc1CCC(=O)c1ccc(CC(C(=O)O)n2cccc2)cc1 (stereo not shown) [drawing 276] |  | 3 |  |  | 
44 | Cc1oc(-c2ccccc2)nc1CCOc1ccc(CC(C(=O)O)c2ccccc2)cn1 (stereo not shown) [drawing 309] | 75 @ 5 μM % BRL |  |  |  | -58
